Assay results from patent publication US4100284A, “1,4-Dioxo- and 4-oxoquinoxaline-2-carboxaldehyde sulfonylhydrazones and certain derivatives thereof” (Pfizer Inc., priority 1977, dated 1978).
≈ marks a conversion by molar mass, not a printed value.

Assays:
E. Coli = assay: In vitro antibacterial activity, two-fold serial dilution in Brain-Heart Infusion broth (MIC); type: cell-based; conditions: Escherichia coli, anaerobic, overnight
Procedure: (§1) The broth is inoculated with bacteria, and with the test compound of formula (I), and then it is incubated overnight under anaerobic conditions. On the next day, the test is read visually. The minimum inhibitory concentration (MIC) of test compound is the lowest concentration which prevents turbidity, i.e., which prevents growth of the microoganism.

Pasteurella multocida = assay: as above; type: cell-based; conditions: anaerobic, overnight
Procedure: as §1

Salmonella cholerasuis [1] = assay: as above; type: cell-based; conditions: anaerobic, overnight
Procedure: as §1

Staph. aureus = assay: as above; type: cell-based; conditions: Staphylococcus aureus, anaerobic, overnight
Procedure: as §1

Strep. pyogenes = assay: as above; type: cell-based; conditions: Streptococcus pyogenes, anaerobic, overnight
Procedure: as §1

Salmonella cholerasuis [2] = assay: In vivo protection of mice against a lethal challenge of Salmonella cholerasuis; conditions: at 25 mg./Kg., multiple dosing
Procedure: The compounds of formula (I) also show antibacterial activity in vivo. In determining such activity, the test compound is administered to mice which have been infected by intraperitoneal injection of a lethal inoculum of pathogenic bacteria. The test compound is administered using a multiple dosing regimen, and using either the oral (PO) or the subcutaneous (SC) route. The inoculum of bacteria varies from one to about ten times the amount needed to kill 100% of the mice, under the conditions of the test. At the end of the test, the activity of a compound is assessed by counting the number of survivors among the treated animals. Results are also given in Table I, wherein the ability of the compound to protect mice against a lethal challenge of Salmonella cholerasuis is presented.

Structure (SMILES) | MIC (E. Coli) [µg/mL] | MIC (Pasteurella multocida) [µg/mL] | MIC (Salmonella cholerasuis [1]) [µg/mL] | MIC (Staph. aureus) [µg/mL] | MIC (Strep. pyogenes) [µg/mL] | % Survivors vs. Sal. Cholarasuis, PO (Salmonella cholerasuis [2]) [%] | % Survivors vs. Sal. Cholarasuis, SC (Salmonella cholerasuis [2]) [%]
O=S(=O)(NN=Cc1c[n+]([O-])c2ccccc2[n+]1[O-])c1ccc(F)cc1 [N → O, H, H, 4-FC6 H4] | 3.12 (≈ 8.62 µM) | 3.12 (≈ 8.62 µM) | 6.25 (≈ 17.2 µM) | 25 (≈ 69 µM) | 12.5 (≈ 34.5 µM) | 10 | 30
Cc1ccc(S(=O)(=O)NN=Cc2c[n+]([O-])c3ccccc3[n+]2[O-])cc1 [N → O, H, H, 4-CH3 C6 H4, 1,4-Dioxoquinoxaline-2-carboxaldehyde p-Toluenesulfonylhydrazone] | 1.56 (≈ 4.35 µM) | 3.12 (≈ 8.72 µM) | 6.25 (≈ 17.4 µM) | 25 (≈ 69.8 µM) | 12.5 (≈ 34.9 µM) | 30 | 100
CS(=O)(=O)NN=Cc1c[n+]([O-])c2ccccc2[n+]1[O-] [N → O, H, H, CH3] | 3.12 (≈ 11.1 µM) | 12.5 (≈ 44.3 µM) | 6.25 (≈ 22.1 µM) | 25 (≈ 88.6 µM) | 12.5 (≈ 44.3 µM) | 10 | 60
Cc1ccc(S(=O)(=O)NN=Cc2c[n+]([O-])c3ccccc3n2)cc1 [N, H, H, 4-CH3 C6 H4, 4-Oxoquinoxaline-2-carboxaldehyde p-Toluenesulfonylhydrazone] | 3.12 (≈ 9.13 µM) | 3.12 (≈ 9.13 µM) | 3.12 (≈ 9.13 µM) | 25 (≈ 73 µM) | 12.5 (≈ 36.5 µM) | 60 | 100
COc1ccc(S(=O)(=O)NN=Cc2c[n+]([O-])c3ccccc3n2)cc1 [N, H, H, 4-CH3 OC6 H4, 4-Oxoquinoxaline-2-carboxaldehyde p-Methoxybenzenesulfonylhydrazone] | 3.12 (≈ 8.72 µM) | 1.56 (≈ 4.35 µM) | 6.25 (≈ 17.4 µM) | 12.5 (≈ 34.9 µM) | 6.25 (≈ 17.4 µM) | – | –
O=S(=O)(NN=Cc1c[n+]([O-])c2ccccc2[n+]1[O-])c1ccccc1 [N → O, H, H, C6 H5, 1,4-Dioxoquinoxaline-2-carboxaldehyde Benzenesulfonylhydrazone] | 12.5 (≈ 36.3 µM) | 12.5 (≈ 36.3 µM) | 12.5 (≈ 36.3 µM) | 100 (≈ 290 µM) | 25 (≈ 72.6 µM) | – | –
